Laboratory results from US9757361B2, “Treatment of psoriasis and of other skin disorders associated with inhibition of differentiation of epidermal cells” (priority 2001, dated 2017).
“Also recorded” adds a separate entry of the source.

How the values were obtained:
psoriatic lesions = experiment: Topical treatment of psoriatic lesions of patients, clinical response and EES scoring; assay type: in vivo, human
Method: The base cream used is made predominantly of heavy paraffin oil (10% w/w), vaseline (10% w/w), stearyl alcohol (8% w/w), polyoxylsteareth-40 (3% w/w) and water (68% w/w) but another suitably formulated base cream is also possible. […] The dosing and the application schedules followed for the lesion shown in FIG. 1A (psoriatic plaque on the dorsum of hand) are as follows: about 30 μl cream applied directly onto the lesion with the aid of a steel spatula every four hours for 24 hours. The cream-applied area is protected from accidental smearing and loss of the cream by covering with an aluminum applicator (FIG. 1 B). The dosing and the application schedules followed for the lesion shown in FIG. 1 D (psoriatic plaque at the scapular region) are as follows: about 30 μl cream applied directly onto the lesion every four hours for 24 hours. The cream-applied area is similarly covered against the smearing and loss of cream. Other treated psoriatic patients and lesions received from about 30 to 35 μl cream to each lesion at intervals of every 3 to 5 hours, as suitable and convenient. Lesions were similarly covered against the smearing and loss of cream. […] The corticosteroid used for treatment of the lesion shown in FIG. 4E was clobetasol 17-propionate in a final concentration of about 1.1 mM in base cream. […] Other corticosteroid molecules well known in the art are contemplated to be also suitable and capable of replacing the above-mentioned corticosteroid molecules at suitable concentrations (the suitable concentration ranges for corticosteroids are also known in the art).
(§1) At intervals of 4 hours, approximately 30 μl cream was applied directly onto the lesion and the cream-applied region was covered against accidental smearing and loss of the cream (FIG. 1 B).
Treatment was then discontinued and the lesion was followed-up.
Severity of psoriatic lesions can be assessed on a semi-quantitative scale by giving separate scores for the erythema, elevation and scaling of a lesion and then by summing up the scores to obtain a score called the EES score of that lesion (Bowman P. H. et al. (2002) J. Am. Acad. Dermatol. 46:907-913).

psoriatic lesional skin = experiment: Histopathological examination (H&E) of treated psoriatic lesional skin; assay type: in vivo, human; conditions: treated half of lesion, 24th hour
Method: as §1
FIG. 2A to FIG. 2W show histopathological and immunohistochemical examination findings of the tissue sections from the non-lesional skin, cyclopamine-treated lesional skin and non-treated lesional skin. Compared to the non-lesional skin (FIG. 2A), the non-treated lesional skin (FIG. 2B) is seen to display the typical histopathological signs of a psoriatic skin lesion mentioned above in the “Background of Invention”. Tissue sections from the cyclopamine-treated half of the original lesion reveal, however, dramatic improvement and regression to normalcy. These histopathological signs of regression to normalcy, exemplified in the FIG. 2C and FIG. 2D (examples from other cyclopamine-treated lesions and patients are given later) include the following: […]

Ki-67 antigen = conditions: treated lesional skin, 24th hour
Description: (§2) All antibodies and reagents for these immunohistochemical investigations were purchased from DAKO (Glostrup, Denmark); human Ki-67 antigen was detected by the monoclonal antibody M7187, human epithelial antigen was detected by the monoclonal antibody Ber-EP4, human CD4 antigen was detected by the monoclonal antibody M0716, human CD8 antigen was detected by the monoclonal antibody C8/144B. Besides the CD8 antigen, the monoclonal antibody C8/144B is known to recognize and bind to the cytokeratin 15 expressed by the hair stem cells (Kanitakis J. et al. (1999) Eur. J. Dermatol. 9:363-365). A DAKO “universal visualization kit” (LSAB2) employing biotinylated secondary antibody and peroxidase-conjugated streptavidin (pre-diluted to match the dilutions of DAKO-supplied primary antibodies) was used for the visualization reactions. All reaction conditions were as recommended by the manufacturer.
The Ki-67 antigen is a marker of the proliferating cells.

[1] = tested on: epithelial antigen (Ber-EP4); experiment: Immunohistochemical staining for the epithelial antigen with the Ber-EP4 antibody; assay type: in vivo, human; conditions: 24th hour
Description: (§3) All reaction conditions were as recommended by the manufacturer.
The monoclonal antibody Ber-EP4 is known to label the basal layer cells in normal epidermis. The outer root sheath of hair follicles, where the hair stem cells are thought to reside, are also known to be labeled with Ber-EP4.

cytokeratin 15 = experiment: Immunohistochemical staining with the C8/144B antibody (cytokeratin 15); conditions: 24th hour
Description: as §2

CD4 positive lymphocytes = experiment: Immunohistochemical staining for the CD4 antigen in lesional skin; assay type: in vivo, human; conditions: treated half of lesion, 24th hour
Description: as §3
Moreover, conversion of the CD4(−) and CD8(−) lymphocytes to the CD4(+) and CD8(+) lymphocytes is viewed widely in the prior art as a requirement for their psoriatic plaque causing action [reviewed in Krueger J G (2002) Journal of the American Academy of Dermatology 46:1-23].

CD44 = experiment: Immunohistochemical staining for the CD44 antigen; assay type: in vivo, human; conditions: lesional skin, 24th hour of treatment
Description: What might be the key/proximal pathogenic event(s) intervened by cyclopamine? […] Both FIG. 4G and a closer-up view on FIG. 4H show decreased CD44 expression in the suprabasal and spinous layers in lesional epidermis in comparison to the situation in non-lesional epidermis.

EGFR = experiment: Immunohistochemical staining for EGFR; assay type: in vivo, human; conditions: lesional skin treated with cyclopamine cream for 24 hours
Description: Epidermal growth factor receptor (EGFR) is another marker known to display downregulation of expression with the differentiation of epidermal keratinocytes. […] Ordinarily EGFR expression is not detected immunohistochemically in the suprabasal layers of normal epidermis and the return of EGFR expression to the basal layer of epidermis is regarded to be one of the first signs of effective treatment of psoriasis by various modalities [King L E Jr. et al (1990) Journal of Investigative Dermatology 95: 10S-12S]. We evaluated the EGFR expression with anti-human EGFR antibody EGFR 113 (Novocastra Lab. Ltd., U.K.) and with immunohistochemical staining with peroxidase.

[2] = tested on: basal cell carcinoma cells; conditions: found earlier, PCT/TR 01/00027; cited from earlier work
[3] = Follow-up of healthy / non-lesional skin after topical cyclopamine for adverse effects; conditions: for adverse effect of topical application on healthy / non-lesional skin: described concentration and dosing conditions

Q: Which “day on which the lesion cleared / became undetectable” value (psoriatic lesions; 18 mM cyclopamine cream every fourth hour for 24 hours, then follow-up without treatment) does the source give for `CC1=C2C[C@H]3[C@@H](CC=C4C[C@@H](O)CC[C@@]43C)[C@@H]2CC[C@]12O[C@@H]1C[C@H](C)CN[C@H]1[C@H]2C` [cyclopamine] here?
A: The value was over 8 days.

Q: And the “days of continued treatment until the lesion cleared” value (psoriatic lesions; application every fourth hour until clearance)?
A: The value was 3 to 4 days.

Q: What about the “lesions subjected to single-day treatment that failed to clear completely” value (psoriatic lesions; human, in vivo) of the same compound?
A: The value was “about 29%”.

Q: What about the “effectiveness on treated psoriatic lesions of different patients and body parts” value (psoriatic lesions; patients 29 to 57 years, lesions on extremities to trunk) of the same compound?
A: The value was “highly effective on every psoriatic lesion for which it was used”.

Q: And the “appearance of lesion site on the 14th day of follow-up” value (psoriatic lesions; plaque at left scapular region, 1 day of treatment, FIG. 1F)?
A: Its value is “No lesion is visible, skin appears normal”.

Q: What about the “appearance of lesion after 1 day of treatment and 7 days of follow-up” value (psoriatic lesions; plaque at left scapular region, FIG. 1E) of the same compound?
A: Its value is “With the possible exception of slight erythema, lesion is no longer visible”.

Q: What about the “site of the treated lesion over a month of follow-up” value (psoriatic lesions; scapular plaque, 1 day of treatment) of the same compound?
A: The value was “healthy-looking normal skin”.

Q: What about the “granular layer of epidermis” value (psoriatic lesional skin) of the same compound?
A: The value was “Vigorous re-appearance”.

Q: And the “hyperkeratosis and parakeratosis in the stratum corneum” value (psoriatic lesional skin)?
A: Its value is “decreased but full normalization of this oldest epidermal layer did not yet happen”.

Q: And the “inflammatory cells infiltrating the subepidermal dermis” value (psoriatic lesional skin)?
A: Its value is “Disappearance from the cyclopamine-treated lesional skin of most of the inflammatory cells”.

Q: And the “rete ridges and epidermal hyperplasia” value (psoriatic lesional skin)?
A: Its value is “Return of the thickened and elongated rete ridges to normal levels and marked decrease of epidermal hyperplasia”.

Q: What about the “suprapapillary epidermis and papillary edema” value (psoriatic lesional skin) of the same compound?
A: The value was “Return of the thinning of the suprapapillary epidermis to normalcy and the disappearance of papillary edema”.

Q: And the “frequency and epidermal position of Ki-67 antigen positive cells” value (Ki-67 antigen)?
A: Its value is “Return of the Ki-67 displaying cells to the epidermal basal layer; also recorded: return of both the frequency and the epidermal position of the Ki-67 antigen positive cells to normalcy”.

Q: What about the “Ber-EP4 staining of basal cells of non-lesional skin after exposure” value ([1]; non-lesional skin in psoriasis) of the same compound?
A: The value was “remained Ber-EP4 positive”.

Q: And the “Ber-EP4 labeling of epidermal basal layer cells of lesional skin” value ([1]; treated lesional skin)?
A: Its value is “cyclopamine-induced reversion to normalcy; also recorded: Epidermal basal layer cells are seen to display the epithelial antigen; also recorded: reverted to normalcy”.

Q: And the “cytokeratin 15 in basal cells of non-lesional epidermis after exposure” value (cytokeratin 15; non-lesional skin)?
A: Its value is “continued to be positive for the cytokeratin 15”.

Q: What about the “C8/144B (cytokeratin 15) labeling of epidermal basal layer cells of lesional skin” value (cytokeratin 15; treated lesional skin) of the same compound?
A: Its value is “consistent restoration of the lost cytokeratin 15 expression; also recorded: normalized and became labeled by the C8/144B antibody”.

Q: And the “CD4 positive lymphocytes infiltrating the lesional skin” value (CD4 positive lymphocytes)?
A: Its value is “Disappearance of the CD4 positive lymphocytes from the dermis of treated area; also recorded: largely cleared”.

Q: And the “CD44 expression in lesional epidermis” value (CD44)?
A: The value was “rapid induction and normalization of the CD44 expression; also recorded: increase and normalization of the expression of CD44”.

Q: What about the “EGFR expression in lesional epidermis” value (EGFR) of the same compound?
A: Its value is “rapidly normalized within 24 hours”.

Q: And the “Ber-EP4 staining of basal cells of normal epidermis exposed under the same conditions” value [2]?
A: The value was “continued to be Ber-EP4 positive”.

Q: What about the “effect on basal cell carcinoma cells (differentiation, Ber-EP4 staining)” value [2] of the same compound?
A: Its value is “cause their differentiation and caused loss of their Ber-EP4 staining”.

Q: What about the “longest duration of follow-up of healthy skin with no adverse effect found” value ([3]; at the time of writing of the invention) of the same compound?
A: Its value is “over 14 months”.

Q: And the “adverse effect of topical application on healthy / non-lesional skin” value [3]?
A: The value was “no adverse effect has been detected”.

Q: And the “adverse effect of topical application on healthy / non-lesional skin” value ([3]; listed as Cyclopamine)?
A: The value was “did not adversely affect the non-lesional skin; also recorded: no detectable adverse effect”.

Q: And the “follow-up of skin sites of application showing healthy-looking normal skin and hair” value ([3]; interval since filing of PCT/TR 02/00017)?
A: The value was “more than 31 months”.
